ChEMBL document CHEMBL1201862, “PubChem BioAssay data set” (2004)
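Test compounds were applied to cells in 96-well plates for 48 hours at 5 doses. GI50 = concentration required for 50% inhibition of growth.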 The source made the active and inactive calls. Cut-off read from the data, not from the text of the source: active = GI50 up to about 1.1 µM and inactive = higher.

Legend:
Assay in all cases: inhibition of tumour cell growth, NCI panel, 48 h
786-0 = tested on: 786-0
A498 = tested on: A498
A549 = tested on: A549
ACHN = tested on: ACHN
BT-549 = tested on: BT-549
CAKI-1 = tested on: CAKI-1
CCRF-CEM = tested on: CCRF-CEM
COLO 205 = tested on: COLO 205
DU-145 = tested on: DU-145
EKVX = tested on: EKVX
HCC 2998 = tested on: HCC 2998
HCT-116 = tested on: HCT-116
HCT-15 = tested on: HCT-15
HL-60 = tested on: HL-60
HOP-62 = tested on: HOP-62
HOP-92 = tested on: HOP-92
HT-29 = tested on: HT-29
Hs-578T = tested on: Hs-578T
IGROV-1 = tested on: IGROV-1
K562 = tested on: K562
KM12 = tested on: KM12
LOX IMVI = tested on: LOX IMVI
M14 = tested on: M14
MCF7 = tested on: MCF7
MDA-MB-231 = tested on: MDA-MB-231
MDA-MB-435 = tested on: MDA-MB-435
MDA-N = tested on: MDA-N
MOLT-4 = tested on: MOLT-4
Malme-3M = tested on: Malme-3M
NCI-H226 = tested on: NCI-H226
NCI-H23 = tested on: NCI-H23
NCI-H460 = tested on: NCI-H460
NCI-H522 = tested on: NCI-H522
NCI/ADR-RES = tested on: NCI/ADR-RES
OVCAR-3 = tested on: OVCAR-3
OVCAR-4 = tested on: OVCAR-4
OVCAR-5 = tested on: OVCAR-5
OVCAR-8 = tested on: OVCAR-8
PC-3 = tested on: PC-3
RPMI-8226 = tested on: RPMI-8226
SF-268 = tested on: SF-268
SF-295 = tested on: SF-295
SF-539 = tested on: SF-539
SK-MEL-28 = tested on: SK-MEL-28
SK-MEL-2 = tested on: SK-MEL-2
SK-MEL-5 = tested on: SK-MEL-5
SK-OV-3 = tested on: SK-OV-3
SN12C = tested on: SN12C
SNB-19 = tested on: SNB-19
SNB-75 = tested on: SNB-75
SR = tested on: SR
SW-620 = tested on: SW-620
T47D = tested on: T47D
TK-10 = tested on: TK-10
U-251 = tested on: U-251
UACC-257 = tested on: UACC-257
UACC-62 = tested on: UACC-62
UO-31 = tested on: UO-31
RXF 393 = tested on: RXF 393

C#C[C@]1(O)[C@@H](CO)O[C@@H](n2ccc(=O)[nH]c2=O)[C@@H]1O
GI50 (786-0): < 0.0121 µM (active) | GI50 (A498): 0.724 µM (active) | GI50 (A549): 0.0308 µM (active) | GI50 (ACHN): 0.0272 µM (active) | GI50 (BT-549): 0.374 µM (active) | GI50 (CAKI-1): < 0.0161 µM (active) | GI50 (CCRF-CEM): 0.19 µM (active) | GI50 (COLO 205): < 0.01 µM (active) | GI50 (DU-145): 0.0391 µM (active) | GI50 (EKVX): 4.72 µM (inactive) | GI50 (HCC 2998): 0.0592 µM (active) | GI50 (HCT-116): < 0.01 µM (active) | GI50 (HCT-15): 0.0186 µM | GI50 (HL-60): 0.356 µM (active) | GI50 (HOP-62): 0.147 µM (active) | GI50 (HOP-92): 0.132 µM (active) | GI50 (HT-29): 0.0171 µM (active) | GI50 (Hs-578T): 1.41 µM (inactive) | GI50 (IGROV-1): 0.0745 µM (active) | GI50 (K562): < 0.0146 µM (active) | GI50 (KM12): 0.144 µM (active) | GI50 (LOX IMVI): 0.0246 µM (active) | GI50 (M14): 0.237 µM (active) | GI50 (MCF7): 0.0339 µM (active) | GI50 (MDA-MB-231): 0.251 µM (active) | GI50 (MDA-MB-435): 0.173 µM (active) | GI50 (MDA-N): 0.0822 µM (active) | GI50 (MOLT-4): < 0.0177 µM (active) | GI50 (Malme-3M): 0.288 µM (active) | GI50 (NCI-H226): 0.0746 µM (active) | GI50 (NCI-H23): 0.428 µM (active) | GI50 (NCI-H460): < 0.01 µM (active) | GI50 (NCI-H522): 0.0214 µM (active) | GI50 (NCI/ADR-RES): < 0.0134 µM (active) | GI50 (OVCAR-3): 0.513 µM (active) | GI50 (OVCAR-4): 0.43 µM (active) | GI50 (OVCAR-5): 0.406 µM (active) | GI50 (OVCAR-8): < 0.01 µM (active) | GI50 (PC-3): 0.25 µM (active) | GI50 (RPMI-8226): 0.0101 µM (active) | GI50 (SF-268): 0.116 µM (active) | GI50 (SF-295): 0.191 µM (active) | GI50 (SF-539): 0.0117 µM (active) | GI50 (SK-MEL-28): 0.791 µM (active) | GI50 (SK-MEL-2): 0.15 µM (active) | GI50 (SK-MEL-5): 0.441 µM (active) | GI50 (SK-OV-3): 1.97 µM (inactive) | GI50 (SN12C): < 0.0184 µM (active) | GI50 (SNB-19): 1.03 µM (active) | GI50 (SNB-75): 0.357 µM (active) | GI50 (SR): 62.4 µM (inactive) | GI50 (SW-620): 0.082 µM (active) | GI50 (T47D): 0.0692 µM (active) | GI50 (TK-10): 0.413 µM (active) | GI50 (U-251): 0.121 µM (active) | GI50 (UACC-257): 1.81 µM (inactive) | GI50 (UACC-62): 0.156 µM (active) | GI50 (UO-31): 0.0278 µM (active)

Cc1cc(N2CCCCC2)nc2ccc(Cc3ccc4nc(N5CCCCC5)cc(C)c4c3)cc12
GI50 (786-0): > 100 µM (inactive) | GI50 (A498): > 100 µM (inactive) | GI50 (A549): > 100 µM (inactive) | GI50 (ACHN): > 100 µM (inactive) | GI50 (BT-549): > 100 µM (inactive) | GI50 (CAKI-1): > 100 µM (inactive) | GI50 (COLO 205): 44.5 µM (inactive) | GI50 (DU-145): > 100 µM (inactive) | GI50 (EKVX): 18.2 µM (inactive) | GI50 (HCC 2998): 22.8 µM (inactive) | GI50 (HCT-116): 98.9 µM (inactive) | GI50 (HCT-15): 79.6 µM | GI50 (HOP-62): > 100 µM (inactive) | GI50 (HOP-92): > 100 µM (inactive) | GI50 (HT-29): 23.6 µM (inactive) | GI50 (Hs-578T): > 100 µM (inactive) | GI50 (IGROV-1): > 100 µM (inactive) | GI50 (K562): 32.1 µM (inactive) | GI50 (KM12): > 100 µM (inactive) | GI50 (LOX IMVI): > 100 µM (inactive) | GI50 (M14): > 100 µM (inactive) | GI50 (MCF7): > 100 µM (inactive) | GI50 (MDA-MB-231): > 100 µM (inactive) | GI50 (MDA-MB-435): > 100 µM (inactive) | GI50 (MDA-N): > 100 µM (inactive) | GI50 (MOLT-4): > 100 µM (inactive) | GI50 (Malme-3M): > 100 µM (inactive) | GI50 (NCI-H226): > 100 µM (inactive) | GI50 (NCI-H23): > 100 µM (inactive) | GI50 (NCI-H460): > 100 µM (inactive) | GI50 (NCI-H522): 83.2 µM (inactive) | GI50 (NCI/ADR-RES): > 100 µM (inactive) | GI50 (OVCAR-3): > 100 µM (inactive) | GI50 (OVCAR-4): > 100 µM (inactive) | GI50 (OVCAR-5): > 100 µM (inactive) | GI50 (OVCAR-8): > 100 µM (inactive) | GI50 (PC-3): > 100 µM (inactive) | GI50 (RPMI-8226): 35.8 µM (inactive) | GI50 (RXF 393): > 100 µM (inactive) | GI50 (SF-268): > 100 µM (inactive) | GI50 (SF-295): > 100 µM (inactive) | GI50 (SF-539): > 100 µM (inactive) | GI50 (SK-MEL-28): > 100 µM (inactive) | GI50 (SK-MEL-2): > 100 µM (inactive) | GI50 (SK-MEL-5): 48.4 µM (inactive) | GI50 (SK-OV-3): > 100 µM (inactive) | GI50 (SN12C): > 100 µM (inactive) | GI50 (SNB-19): > 100 µM (inactive) | GI50 (SNB-75): > 100 µM (inactive) | GI50 (SR): 24.2 µM (inactive) | GI50 (SW-620): > 100 µM (inactive) | GI50 (T47D): 60.7 µM (inactive) | GI50 (TK-10): > 100 µM (inactive) | GI50 (U-251): > 100 µM (inactive) | GI50 (UACC-257): 53.6 µM (inactive) | GI50 (UACC-62): > 100 µM (inactive) | GI50 (UO-31): > 100 µM (inactive)
